Values quoted from earlier work in patent US20070196463A1, “Enteric Soft Gelatin Capsule Containing Esomerpazole And Method Of Preparation” (Natco Pharma Limited, priority 2004, published 2007).

inter-individual variability (human, due to more consistent pharmacokinetics): reduced
SMILES: COc1ccc2nc([S@@+]([O-])Cc3ncc(C)c(OC)c3C)[nH]c2c1 [esomeprazole]
activity of the enantiomer in human testing (human testing of enantiomers of omeprazole): more active
